From ChEMBL document CHEMBL1121433, “New cyclopenta[a]naphthalene derivatives. Synthesis of 2-(carbamylmethyl)-8-hydroxy-3H-cyclopental[a]naphthalene as a possible deoxyribonucleic acid binding agent” (1980)

Tests used:
CCRF-CEM = assay: Tested for inhibition of compound against growth of CCRF-CEM cells at 1.0E-4 M; type: functional, Homo sapiens
L1210 = assay: Tested for inhibition of compound against growth of L1210 cells at 3.2E-5 M; type: functional, Mus musculus

What does the source list for NC(=O)CC1=Cc2c(ccc3ccc(O)cc23)C1?
Inhibition (CCRF-CEM): 25%; Inhibition (L1210): 25%
